Laboratory results as given in patent publication US9688653B2, “Ethoxyphenyl thienyl compounds and methods for the treatment of bacterial infections” (Duke University, priority 2013, dated 2017).

Experiments:
[1] = test system: Bladder carcinoma 5637 cells; assay: Cytotoxicity counterscreen, CellTiter Glo, 72 hr; assay type: cell-based, human
Protocol: B. Counterscreen: Cytotoxicity Screening for Potential Inhibitors of Bacterial Capsule Biogenesis.
Purpose: This cell-based assay measures the cytotoxicity of compounds in bladder carcinoma 5637 cells using luminescent cell viability assay readout.
Cytotoxicity assay: The cytotoxicity assay was performed as described in Section 6: Appendix. Hit cytotoxicity and the 50% toxic concentration (CC50) was determined and compared to the IC50 to calculate the selectivity index.
Assay Description: Cytotoxicity: Dose response testing (dose range=300-0.58 μM) established the hit cytotoxicity data. Compounds were plated in 384-well microplates in a stacked dose response format using the same doses used in the efficacy dose response. Bladder carcinoma 5637 cells were added to the compounds, and 72 hr later cell viability was measured using CellTiter Glo (38). Hit cytotoxicity and the 50% toxic concentration (TC50) was determined and compared to the IC50 to calculate the therapeutic index. Test compounds are serially diluted in a plate to plate matrix or stacked plate matrix. All 320 compounds in a source plate are diluted together resulting in a 10 point dose response dilution series. It is visualized as a serial dilution series proceeding vertically through a stack of plates with the high dose plate on top and the low dose plate on the bottom.
Control Drug: Hyamine was used as a positive cytotoxic control. All wells contained 0.5% DMSO.
Preparation of Bladder carcinoma 5637 cells: Cells are harvested and resuspended to 80,000 cells per ml in Complete DMEM/F12®.
Endpoint Read: Following the three day incubation period, the assay plates were equilibrated to room temperature for 30 min and an equal volume (30 μL) of Cell Titer-Glo® reagent (Promega Inc.) is added to each well using a WellMate™ (Matrix, Hudson, N.H.) and plates are incubated for an additional 10 min at room temperature. At the end of the incubation, luminescence is measured using a Perkin Elmer Envision™ multi-label reader (PerkinElmer, Wellesley, Mass.) with an integration time of 0.1 s.
Cytotoxicity. Testing was performed essentially as previously described. Concentration-response testing was performed over a range 0.58-300 μM in a […] well plate format. Bladder carcinoma 5637 cells (ATCC HTB-9) were added to the compounds, and 72 hrs later cell viability was measured using CellTiter Glo (Promega). The 50% toxic concentration (TC50) was determined and compared to the IC50 to calculate the therapeutic index. Hyamine was used as a positive cytotoxic control. All wells contained 0.5% DMSO.

[2] = test system: E. coli K1 strain UTI89; assay: microbe, parasite or virus in culture
Excerpt: The ability of the […] to bind to bacterial capsule, infect, and lyse E. coli UT189 was used as the primary assay to identify the effects of screened compounds on bacterial capsule formation. The phenotypic end-point assay measured the fluorescence generated by cellular processing of Alamar Blue as a direct indicator of cell viability. A total of […] compounds were screened using the primary assay. […] Hits were further evaluated using […] secondary assays for alternative measurement of compound-induced reduction in bacterial capsule formation (secondary assays 1 and 2) and specificity (secondary assays 3 and 4). Confirmed actives with an SI>5 were further investigated and subjected to chemical optimization, followed by secondary assay evaluation. Secondary assays more closely characterized the ability of the compounds to reduce bacterial capsule formation and can be used to examine the mechanism of action of the compounds. The combination of primary assay (to measure capsule reduction), counter assay (for general eukaryotic cell toxicity) and secondary assay (to measure reduction in capsule formation and specificity) were combined to allow a determination of probe efficacy, selectivity, and specificity.
A. Primary Assay: Screening for Inhibitors of Bacterial Capsule Biogenesis.
Primary assay: An end-point assay to measure the amount of K1 phage-induced bacterial cell lysis was employed to determine the compound effect on capsule biogenesis. K1 bacteriophage specifically binds the bacterial capsule during the initial stages of infection. Bacteria without capsule cannot be infected and lysed by the bacteriophage. […] A total of 338,740 compounds were screened at 100 μM in the primary screen Inhibition of phage lysis was calculated relative to the mean of the bacterial (positive) control on each microtiter plate. […] For calculation of S/B/Z value, and CV, the following formulae (in which SD stands for standard deviation) were used: S/B=mean signal/mean background; Z=1-3SD of sample+3SD of control mean of sample−mean of control; % CV=(SD mean signal/mean signal)×100.
IC50 values were calculated using a 4 parameter Levenburg-Marquardt algorithm, with the maximum and minimum locked at 0 and 100 respectively.
Primary assay: The primary assay was conducted in the 1,536 well plate format. Bacterial cultures of E. coli K1 strain UTI89 (cystitis isolate) and isogenic capsule mutant strains (as controls for phage infection) were grown and prepared at the screening center immediately prior to use. Overnight starting cultures of UTI89 were grown at 37° C., and inoculated into 1 liter of LB (starting OD600˜0.03), which was sufficient for screening 40 plates (including ˜10% waste) and ˜40,000 compounds as single points.
Control wells contained UTI89 (wt K1) with 0.5% DMSO as a simulated positive control; UTI89 with 0.5% DMSO and tetracycline for a negative growth control; and media plus vehicle control. 50 mL of LB Broth was inoculated with stock 150 μL E. coli UT189 and grown overnight at 37° C. The next day, cultures were diluted 1:75 in 1 L of LB Broth containing 0.5% DMSO. 3 μL of this culture was added to each plate well, and plates were incubated, inverted, at 37° C. for 2 hr. The K1F bacteriophage stock was diluted 1:8 in LB Broth containing 0.5% DMSO, and 1.5 μL of diluted phage (or media only) was added to the pre-plated test compound wells and appropriate control wells. The plates were centrifuged briefly, and then were incubated, inverted, at 37° C. for an additional 2 hr. Afterward, Alamar Blue reagent (Invitrogen, #DAL1100) was diluted 1:2 with LB broth and 1 μL was added to each plate well.

[3] = test system: E. coli K1 strain UTI89; assay: Secondary assay 2: T7 phage-mediated lysis assay; assay type: cell-based, Escherichia coli; conditions: n = 2, read-out: T7 phage IC50
Excerpt: D. Secondary Assay 2: Screening for Inhibitors of Bacterial Capsule Biogenesis—T7 Lysis Inhibition
Purpose: This secondary assay measures the compound mechanistic specificity for inhibition of bacterial capsule formation and excludes inhibitors of phage replication using a different bacteriophage (T7). In this assay, an increase in phage-induced lysis correlates to a decrease in capsule formation.
Purpose: This secondary assay measures the compound mechanistic specificity for inhibition of bacterial capsule formation using a different bacterial phage (T7). In this assay, an increase in phage-induced lysis correlates to a decrease in capsule formation.
Assay Description: T7 phage-mediated lysis assay: This assay determined if the mechanism of action of the compound is inhibition of phage infectivity or replication. The T7 phage has a nearly identical genome to K1F, without encoding an endosialidase. Its cycle of replication is similar to that of K1F as well. However, T7 entry into E. coli is inhibited by K capsules. This secondary assay was conducted in the 96 well plate format. […] Compounds were added in quadruplicate to plates in a concentration dependent manner in the range of 100-0.39 μM, followed by addition of 100 μL of bacterial culture. 1% DMSO (final well concentration) was included. The plates were tape sealed and shaken vigorously for 1.5 hr. An initial OD600 reading was measured to identify compounds that cause growth retardation or bacterial killing in the absence of phage. Next, T7 phage (5 μL) was added to all of the test wells. The plates were resealed and shaken vigorously at 37° C., and measurements of OD600 for phage-mediated lysis were taken after 3 hr. True inhibitors of capsule yielded bacteria that were susceptible to T7 phage and lysed within 2 hr of the addition of phage. […] The positive control drug C7 (100 μM final well concentration) was used in this screen.
T7 phage counter assay. This secondary assay was performed as previously described and was used to distinguish compounds with phage inhibitory effects from true polysaccharide capsule inhibitors. […] Thus, the presence of a capsule inhibits T7-mediated lysis. In this assay, an increase in phage-induced lysis correlates to a decrease in capsule formation. True inhibitors of capsule yielded bacteria that were susceptible to T7 phage and lysed within 2 hr of the addition of phage. […] The positive control molecule C7 (100 μM final well concentration) was used in this screen.

[4] = read-out: K1 phage IC50, second round of synthetic analogues, n = 3
[5] = second round of synthetic analogues
[6] = read-out: K1 phage IC50, purchased analogue series, n = 3
[7] = read-out: K1 phage IC50, first round of synthetic analogues, n = 3
[8] = first round of synthetic analogues

| Structure (SMILES) | IC50 [1] [µM] | IC50 [2, 4] [µM] | IC50 [3, 5] [µM] | IC50 [2, 6] [µM] | IC50 ([3]; purchased analogue series) [µM] | IC50 [2, 7] [µM] | IC50 [3, 8] [µM] | IC50 ([2]; read-out: K1 phage IC50 (inhibition of K1 capsule formation)) [µM] |
| --- | --- | --- | --- | --- | --- | --- | --- | --- |
| CCCc1ccc(-c2cc(NC(=O)c3cc(Br)c(Br)o3)c(C(=O)O)s2)cc1 [compound 56643005] | 41 | 6.78 | < 5 | – | – | – | – | – |
| O=C(O)c1sc(-c2ccccc2)cc1NC(=O)C1CCCCC1 [compound 16393057] | 115 | – | – | > 100 | 65.2 | – | – | – |
| Cc1ccc(-c2cc(NC(=O)c3cc4ccccc4o3)c(C(=O)O)s2)cc1 [compound 53470436] | 94.6 | – | – | – | – | > 100 | 20 | – |
| COc1ccc(-c2cc(NC(=O)c3c(F)cccc3F)c(C(=O)O)s2)cc1 [compound 53470430] | 239 | – | – | – | – | > 100 | 2.65 | – |
| CC(C)c1ccc(-c2cc(NC(=O)c3cccc(F)c3)c(C(=O)O)s2)cc1 [compound 53470444] | 37.6 | – | – | – | – | 24.8 | 2.81 | – |
| COc1ccc(-c2cc(NC(=O)c3cccc(F)c3)c(C(=O)O)s2)cc1 [compound 53470445] | 44.8 | – | – | – | – | > 100 | 8.36 | – |
| COc1ccc(-c2cc(NC(=O)c3cc4ccccc4o3)c(C(=O)O)s2)cc1 [compound 53470443] | 44.8 | – | – | – | – | > 100 | 8.36 | – |
| O=C(Nc1cc(-c2ccccc2)sc1C(=O)O)c1cccc(Cl)c1 [compound 23602077] | 43.8 | – | – | 84.5 | 34.4 | – | – | – |
| O=C(Nc1cc(-c2ccccc2)sc1C(=O)O)c1cc2ccccc2o1 [compound 17548073] | 167 | – | – | > 100 | 6.7 | – | – | – |
| O=C(Nc1cc(-c2ccc(OCCCC(F)(F)F)cc2)sc1C(=O)O)c1ccc(Br)o1 [compound 56643008] | 38.7 | 1.78 | < 2.5 | – | – | – | – | – |
| CC(C)(C)c1ccc(-c2cc(NC(=O)c3cccc(F)c3)c(C(=O)O)s2)cc1 [compound 53470435] | 21.1 | – | – | – | – | 19.9 | 2.7 | – |
| [N-]=[N+]=NCCOc1ccc(-c2cc(NC(=O)c3c(F)cccc3F)c(C(=O)O)s2)cc1 [compound 56643025] | 273 | 17.5 | < 0.625 | – | – | – | – | – |
| CCCCOc1ccc(-c2cc(NC(=O)c3c(F)cccc3F)c(C(=O)O)s2)cc1 [compound 56643007] | 42.6 | < 0.78 | < 0.625 | – | – | – | – | – |
| CCOc1ccc(-c2cc(NC(=O)c3c(F)cc(F)cc3F)c(C(=O)O)s2)cc1 [compound 56643006] | 76.6 | 20 | < 5 | – | – | – | – | – |
| COc1ccc(-c2cc(NC(=O)c3ccc(Br)o3)c(C(=O)O)s2)cc1 [compound 53470446] | 50.5 | – | – | – | – | 11.1 | 1.24 | – |
| CCCCOc1ccc(-c2cc(NC(=O)c3ccc(Br)o3)c(C(=O)O)s2)cc1 [CID 56643021] | 43.4 | – | < 0.625 | – | – | – | – | 0.85 |
| O=C(Nc1cc(-c2ccc(OCCCC(F)(F)F)cc2)sc1C(=O)O)c1cc(Br)c(Br)o1 [compound 56643009] | 251 | > 100 | < 2.5 | – | – | – | – | – |
| O=C(O)c1sc(-c2ccc(OCCCC(F)(F)F)cc2)cc1NC(=O)c1c(F)cccc1F [compound 56643024] | 241 | 10.3 | < 2.5 | – | – | – | – | – |
| O=C(O)c1sc(-c2ccc(OCCCC(F)(F)F)cc2)cc1NC(=O)c1c(F)cc(F)cc1F [compound 56643015] | 54.7 | 5.53 | < 1.25 | – | – | – | – | – |
| Cc1ccc(-c2cc(NC(=O)c3ccc(Br)s3)c(C(=O)O)s2)cc1 [compound 53470429] | 64 | – | – | – | – | > 50 | 10.7 | – |
| CCOc1ccc(-c2cc(NC(=O)c3ccc(OC)c(OC)c3)c(C(=O)O)s2)cc1 [compound 23602082] | 72.3 | – | – | 57.9 | 8 | – | – | – |
